Measured values from the Biogen ADME set (Fang et al. 2023).
In brackets after ≈: the same amount, converted by molar mass.

Settings: for aqueous solubility: pH 6.8

| Compound | MDR1-MDCK efflux ratio | fraction unbound, human plasma | fraction unbound, rat plasma | intrinsic clearance, human liver microsomes [mL/min/kg] | intrinsic clearance, rat liver microsomes [mL/min/kg] | aqueous solubility [µg/mL] |
| --- | --- | --- | --- | --- | --- | --- |
| Cc1ccc(Oc2ccc(N)cc2)nn1 | 0.725 | – | – | ≤ 4.74 | ≤ 10.7 | – |
| CC1(C)CC(CC(=O)NCCn2ccnn2)CC(C)(C)N1 | 0.186 | – | – | ≤ 4.74 | ≤ 10.7 | – |
| Cc1cccc(OCC(=O)Nc2ccn(C)n2)c1 | – | – | – | 21.1 | 479 | 43.5 (≈ 177 µM) |
| Cc1cc(F)ccc1C(=O)NCc1ccc(O)c(O)c1 | – | – | – | ≤ 4.74 | 83.9 | 40.5 (≈ 147 µM) |
| COc1ccccc1-c1nn(-c2ccccc2)cc1CO | 0.418 | – | – | 42.1 | 374 | 19.7 (≈ 70.4 µM) |
| Nc1ccc2c(c1)ncn2CCc1ccccc1 | 0.701 | – | – | ≤ 4.74 | 28.1 | 38.4 (≈ 162 µM) |
| OC[C@H](Nc1cncc(-c2ccc3[nH]ncc3n2)c1)c1ccccc1 | 25 | 0.104 | 0.106 | 9.8 | 330 | 32.7 (≈ 98.6 µM) |
| O[C@@H]1CO[C@H]2C[C@@H]1Nc1c(Cc3ccccc3)cccc12 | 0.47 | – | – | 33.5 | 354 | 30 (≈ 106 µM) |
| CSc1ccc(-c2ccc3n(c2=O)C[C@H]2C[C@@H]3CN(C(=O)c3ccncc3)C2)cc1 | 44 | – | – | 54 | 357 | 37.5 (≈ 89.8 µM) |
| CC(=O)N1CCCN(C(=O)Nc2ccc(N(C)C3CCCCC3)c(F)c2)CC1 | 28.2 | – | – | 103 | 924 | 67.7 (≈ 173 µM) |
| O=C(Nc1ccc2c(c1)OCCCO2)c1cnn(Cc2ccccc2)c1 | 0.64 | – | – | 6.05 | 492 | 16.5 (≈ 47.2 µM) |
| CCCn1ncc(CN2CCC(c3ncc[nH]3)CC2)c1C | – | – | – | 7.33 | 498 | – |
| CS(=O)(=O)c1cccc(CNc2nc(Nc3ccc4c(c3)CCC(=O)N4)ncc2C(F)(F)F)c1 | – | – | – | 14.2 | 133 | 2.96 (≈ 6.03 µM) |
| Brc1nnc(N2CCC(OC3CCCC3)CC2)s1 | 0.582 | – | – | 77.3 | 3110 | – |
| O=C(C1CCC1)N1CCC[C@H]1Cn1nnc(-c2cccs2)n1 | 0.712 | – | – | – | 4750 | – |
| CS(=O)(=O)NCc1cc2n(n1)CCN(C1Cc3ccccc3C1)C2 | 2.92 | – | – | ≤ 4.74 | 27.7 | – |
| CN1CCN(C(=O)c2cc(Br)cnc2Cl)c2cnccc21 | 4.54 | – | – | 9.09 | 90.8 | 57.8 (≈ 157 µM) |
| COCC(=O)Nc1cc(C#N)cn1C(C)(C)C | 1.29 | – | – | ≤ 4.74 | 15.3 | – |
| O=C(O)Cc1nc2ccccc2[nH]1 | – | – | – | – | – | 10.1 (≈ 57 µM) |
| C=CC(=O)Nc1cccc(Nc2nc(Nc3ccc(OCCOC)cc3)ncc2F)c1 | 3.94 | – | – | 32.1 | 391 | 3.8 (≈ 8.97 µM) |
| Cc1cc(Nc2ccc3c(c2)oc(=O)n3C)nc(C2CC2)n1 | 0.717 | – | – | 23.9 | 159 | 5.34 (≈ 18 µM) |
| CONC(=O)c1cn(-c2ccc(Br)cc2)cn1 | – | – | – | ≤ 4.74 | 463 | 63.6 (≈ 215 µM) |
| O=C(CSc1ccc2c(c1)OCCO2)NC1CCCC1 | 0.73 | – | – | 83.8 | 5820 | – |
| CNc1nc(C)nc(N[C@H]2CCC[C@@H](C(=O)NCc3ccc(C#N)cc3C(F)(F)F)C2)n1 | 108 | – | – | 18.4 | 91.3 | – |
| N#Cc1cccnc1NCCc1ccc(F)cc1 | 0.519 | – | – | 179 | 1150 | 2.69 (≈ 11.1 µM) |
| COc1cccc(S(=O)(=O)N2CCOC(c3c(C(N)=O)sc4ncccc34)C2)c1 (centres undefined) | 38.2 | – | – | – | – | – |
| CC1CC1C(=O)N1CCC(n2c(=O)[nH]c3ccccc32)CC1 (centres undefined) | – | – | – | ≤ 4.74 | 162 | 32.2 (≈ 108 µM) |
| COc1ccc(-n2c(Cn3cnc(C#N)n3)nc3ccccc32)cc1 | 1.37 | – | – | 5 | 664 | 36 (≈ 109 µM) |

Second part, the compound after the results:

| MDR1-MDCK efflux ratio | fraction unbound, human plasma | fraction unbound, rat plasma | intrinsic clearance, human liver microsomes [mL/min/kg] | intrinsic clearance, rat liver microsomes [mL/min/kg] | aqueous solubility [µg/mL] | Compound |
| --- | --- | --- | --- | --- | --- | --- |
| 0.438 | 1 | 1 | ≤ 4.74 | ≤ 10.7 | – | CN(c1ncc(F)cn1)[C@H]1CCCNC1 |
| 2.68 | – | – | 38.1 | 2820 | 10 (≈ 25.7 µM) | COc1cccc(NC(=O)[C@H]2CCCN(S(=O)(=O)c3ccc(C)cc3)C2)c1 |
| – | – | – | 7.61 | 22.2 | – | CCCS(=O)(=O)Nc1ccc(F)c(C(=O)c2c[nH]c3ncc(Cl)cc23)c1F |
| 18 | – | – | 6.21 | 89.6 | 14.9 (≈ 47.9 µM) | CCOC(=O)Cc1c(C)[nH]c2c(-c3ccccc3)cnn2c1=O |
| 2.99 | – | – | 161 | 1900 | 2.71 (≈ 7.14 µM) | O=C(NC1CCCCCC1)c1ccc(CSc2nc3ccccc3[nH]2)cc1 |
| – | – | – | 75.6 | 89 | – | CCCN(C(=O)c1ccc(COC)o1)c1nc2c(s1)CCc1c-2cnn1C |
| 48.2 | – | – | 40.5 | 322 | 61.3 (≈ 145 µM) | Cn1c(-c2ccc(F)cc2)cnc1NC(=O)CCC(=O)N1CC(=O)Nc2ccccc21 |
| 2.82 | – | – | 17.3 | 166 | – | COc1cc(C#N)ccc1Cn1ccnc1C(C)C |
| 6.4 | – | – | – | – | 0.37 (≈ 1.06 µM) | CS(=O)(=O)N1CCc2c(cccc2NC(=O)c2ccc(F)cc2)C1 |
| 0.659 | – | – | ≤ 4.74 | ≤ 10.7 | 62.3 (≈ 217 µM) | O=C(NCC(=O)N1CCN(C2CC2)CC1)c1ccccc1 |
| 0.686 | – | – | 5.46 | 252 | – | NC(=O)c1csc(CN2CCc3cc(F)ccc3C2)c1 |
| – | – | – | – | – | 40.8 (≈ 159 µM) | CC(C)(C)c1noc(COc2ccccc2C#N)n1 |
| 0.593 | – | – | 303 | 3450 | 22.4 (≈ 62.9 µM) | Cc1cccc(-c2ncc(CNCc3ccccc3-n3cccn3)cn2)c1 |
| 5.91 | – | – | 6.41 | 43.2 | 10.2 (≈ 23.6 µM) | CC(=O)N1CCC(Nc2ncnc3cc(-c4ccc(Br)cc4)sc23)CC1 |
| 0.65 | – | – | ≤ 4.74 | 60.6 | 67.8 (≈ 252 µM) | Cc1cncc(C2CCN(Cc3cnccn3)CC2)n1 |
| 2.14 | – | – | ≤ 4.74 | 65.6 | 45.1 (≈ 170 µM) | N#CC1(NC(=O)CN2CCOCC2)CCCCCC1 |
| 2.95 | – | – | ≤ 4.74 | 41.2 | 50.1 (≈ 158 µM) | Cn1cc(NC(=O)c2ccc(OCC3CCOCC3)nc2)cn1 |
| 1.73 | – | – | 86.6 | 1080 | 65.8 (≈ 171 µM) | O=C(CN1CCCC(c2cncc(-c3cccc(Cl)c3)n2)C1)N1CCCC1 (centres undefined) |
| 0.493 | – | – | 27.7 | 790 | 45.4 (≈ 139 µM) | Cc1ccc(CN2CC[C@H](c3nnc(-c4ccccc4F)o3)C2)o1 |
| 0.725 | – | – | 32.6 | 625 | 28.3 (≈ 83.5 µM) | CCc1ccc(-c2nccn2CC(=O)Nc2ccc(C)cc2F)nc1 |
| 4.71 | – | – | 9.13 | 368 | 2.6 (≈ 8.77 µM) | CN(C)c1ccc(Cn2c(=O)[nH]c3ccccc3c2=O)cn1 |
| 0.527 | – | – | 25.9 | 862 | 32 (≈ 105 µM) | CCN(C/C=C/c1ccc(F)cc1)Cc1nc(COC)no1 |
| 0.45 | – | – | 194 | 620 | 47.2 (≈ 170 µM) | COc1ccc(CNCc2cccc3ccccc23)cc1 |
| 1.02 | 0.0522 | 0.00672 | 33.4 | 141 | – | Cc1oc2ccccc2c1CNc1nnc(-c2ccncc2)o1 |
| 1.53 | – | – | 163 | 3200 | – | Cc1nn(CCNS(=O)(=O)N2CCCCC2)c(C)c1C |
| 0.8 | – | – | 8.33 | 710 | – | c1nc(N2CCC3(CCCCC3)C2)c2cn[nH]c2n1 |
| 1.69 | – | – | 24.2 | 1910 | – | C[C@H]1CN2C[C@H](O)C[C@@H]2CN1Cc1cccc2ccccc12 |
| 0.556 | – | – | 16.8 | 626 | 30.6 (≈ 120 µM) | Cc1ccc(NC(=O)C(C)(C)c2ccccc2)nc1 |
| – | – | – | 137 | 1890 | – | CN1N=C(SCc2ccc(Cl)cc2Cl)Sc2c1cnn(C)c2=O |
